In US8389523B2, “Substituted quinoxaline and an agrochemical composition thereof” (Kumiai Chemical Industry Co., Ltd., priority 2007, dated 2013):

What was measured:
Format in all cases: in vivo
Set-up in all cases: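 grade 0 to 5 of growth suppression where 5 is 90% or more and 0 below 10%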
[1] = test system: Scirpus juncoides Roxb. var. ohwianus. T. Koyama; test: Herbicidal effects in paddy field soil treatment (Test Example 1); settings: paddy field soil treatment; 1000 g of the active ingredient per hectare; wettable powder added dropwise on water surface; 21st day after treatment
In short: (§1)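 Scoring of herbicidal effect took place 21 days after treatment, using a rating scale, on plants grown in a greenhouse. The test compound, formulated as a wettable powder and diluted with water, had been applied dropwise to the flood water at 1000 g active ingredient per hectare, one day after sowing into puddled paddy soil held under 3 cm of water.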

[2] = test system: Monochoria vaginalis (Burm. f.) Presl var. plantaginea (Roxb.) Solms-Laub.; test: as above; settings: paddy field soil treatment; 1000 g of the active ingredient per hectare; wettable powder added dropwise on water surface; 21st day after treatment
In short: as §1

[3] = test system: Echinochloa oryzicola Vasing; test: as above; settings: paddy field soil treatment; 1000 g of the active ingredient per hectare; wettable powder added dropwise on water surface; 21st day after treatment
In short: as §1

[4] = test system: Amaranthus viridis L.; test: Herbicidal effects in upland field foliar treatment (Test Example 3); settings: 1000 g of the active ingredient per hectare, 14th day after the treatment, wettable powder, criteria of Table 138
In short: (§2)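 Herbicidal activity is rated visually on a fixed scale 14 days after foliar application. Plants raised from seed in upland field soil for two weeks under glass receive a water dilution of a wettable powder at 1000 g a.i. per hectare in 1000 L/ha.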

[5] = test system: Echinochloa crus-galli (L.) P. Beauv. var. crus-galli; test: as above; settings: 1000 g of the active ingredient per hectare, 14th day after the treatment, wettable powder, criteria of Table 138
In short: as §2

[6] = test system: Abutilon theophrasti medicus; test: as above; settings: 1000 g of the active ingredient per hectare, 14th day after the treatment, wettable powder, criteria of Table 138
In short: as §2

[7] = test system: Amaranthus viridis L.; test: Herbicidal effects in upland field soil treatment (Test Example 2); settings: 1000 g active ingredient per hectare, 21st day after treatment, criteria of Table 138
In short: (§3)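 Herbicidal effect was rated visually against set criteria on the 21st day after a pre-emergence soil-surface spray of diluted wettable powder delivering 1000 g active ingredient per hectare (1000 L/ha). Seeds had been sown and covered in upland field soil; plants grew in a greenhouse.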

[8] = test system: Abutilon theophrasti medicus; test: as above; settings: 1000 g active ingredient per hectare, 21st day after treatment, criteria of Table 138
In short: as §3

| SMILES | Herbicidal effects index, Scirpus juncoides Roxb. var. ohwianus. T. Koyama [1] | Herbicidal effects index, Monochoria vaginalis (Burm. f.) Presl var. plantaginea (Roxb.) Solms-Laub. [2] | Herbicidal effects index, Echinochloa oryzicola Vasing [3] | herbicidal effects on Amaranthus viridis L. [4] | herbicidal effects on Echinochloa crus-galli (L.) P. Beauv. var. crus-galli [5] | herbicidal effects on Abutilon theophrasti medicus [6] | herbicidal effect (index) on Amaranthus viridis L. [7] | herbicidal effect (index) on Abutilon theophrasti medicus [8] |
| --- | --- | --- | --- | --- | --- | --- | --- | --- |
| CCOC(=O)Cn1c(=O)c(C(=O)C2=C(O)CCCC2=O)nc2cccnc21 [III-96] | 5 | 5 | 5 | 5 | 5 | 5 | 5 | 5 |
| CC(C)(C)OC(=O)Cn1c(=O)c(C(=O)C2=C(O)CCCC2=O)nc2cccnc21 [III-99] | 5 | 5 | 5 | 5 | 4 | 5 | 5 | 5 |
| O=C1CCCC(O)=C1C(=O)c1nc2cccnc2n(Cc2ccccc2)c1=O [III-107] | 5 | 5 | 5 | 5 | 4 | 5 | 5 | 4 |
| O=C1CCCC(O)=C1C(=O)c1nc2cccnc2n(Cc2ccccc2F)c1=O [III-108] | 5 | 5 | 5 | 5 | 5 | 5 | 5 | 5 |
| O=C1CCCC(O)=C1C(=O)c1nc2cccnc2n(Cc2ccccc2Cl)c1=O [III-111] | 5 | 5 | 5 | 5 | 5 | 5 | 5 | 5 |
| O=C1CCCC(O)=C1C(=O)c1nc2cccnc2n(Cc2ccccc2C(F)(F)F)c1=O [III-117] | 5 | 5 | 5 | 5 | 5 | 5 | 5 | 5 |
| O=C1CCCC(O)=C1C(=O)c1nc2cccnc2n(Cc2cccc(C(F)(F)F)c2)c1=O [III-118] | 5 | 5 | 5 | 5 | 5 | 5 | 5 | 5 |
| COc1ccccc1Cn1c(=O)c(C(=O)C2=C(O)CCCC2=O)nc2cccnc21 [III-120] | 5 | 5 | 5 | 5 | 5 | 5 | 5 | 4 |
| CC(c1ccccc1)n1c(=O)c(C(=O)C2=C(O)CCCC2=O)nc2cccnc21 (stereo not drawn) [III-130] | 5 | 5 | 5 | 5 | 5 | 5 | 5 | 5 |
| CC(CCn1c(=O)c(C(=O)C2=C(O)CCCC2=O)nc2cccnc21)=C(F)F [III-232] | 5 | 5 | 5 | 5 | 5 | 5 | 5 | 5 |
| O=C1CCCC(O)=C1C(=O)c1nc2cccnc2n(Cc2ccccc2OC(F)F)c1=O [III-234] | 5 | 5 | 5 | 5 | 5 | 5 | 5 | 5 |
| O=C1CCCC(O)=C1C(=O)c1nc2cccnc2n(-c2ccccc2)c1=O [IV-1, 2-(2-hydroxy-6-oxo-1-cyclohexenecarbonyl)-4-phenyl-pyrido[2,3-b]pyrazin-3(4H)-one] | 5 | 5 | 5 | 5 | 5 | 5 | 5 | 5 |
| CC1(C)CCC(=O)C(C(=O)c2nc3cccnc3n(-c3ccccc3)c2=O)=C1O [IV-2] | 5 | 5 | 5 | 5 | 5 | 5 | 5 | 5 |
| CC1(C)CC(=O)C(C(=O)c2nc3cccnc3n(-c3ccccc3)c2=O)=C(O)C1 [IV-3] | 5 | 5 | 5 | 5 | 5 | 5 | 5 | 5 |
| O=C(C1=C(O)C2CCC(C2)C1=O)c1nc2cccnc2n(-c2ccccc2)c1=O (stereo not drawn) [IV-4] | 5 | 5 | 5 | 5 | 5 | 5 | 5 | 5 |
| O=C1CCCC(O)=C1C(=O)c1nc2cccnc2n(-c2ccccc2F)c1=O [IV-6] | 5 | 5 | 4 | 5 | 4 | 5 | 5 | 5 |
| O=C1CCCC(O)=C1C(=O)c1nc2cccnc2n(-c2cccc(F)c2)c1=O [IV-7] | 5 | 5 | 5 | 5 | 5 | 5 | 5 | 5 |
| O=C1CCCC(O)=C1C(=O)c1nc2cccnc2n(-c2ccc(F)cc2)c1=O [IV-8] | 5 | 5 | 5 | 5 | 5 | 5 | 5 | 5 |
